From patent publication US6455588B1, “Compositions including modafinil for treatment of eating disorders and for appetite stimulation” (Cephalon, Inc., priority 1999, dated 2002)

Key:
[1] = tested on: neurons of the TMN and VLPO of the hypothalamus; assay: Neuronal activity in hypothalamic nuclei (TMN, VLPO) after modafinil administration; format: in vivo, rats
From the text: Activation of this histaminergic pathway by modafinil results in cortical activation and wakefulness. Thus, it appears that the physiologic basis for the wake-promoting actions of modafinil involves disinhibition of histaminergic neurons of the TMN by inhibitory actions on the VLPO. This represents the first pharmacologic agent known to produce wakefulness by activation of the TMN.

[2] = 400 mg/day, clinical trials; cited from earlier work
orexin neurons = assay: Double immunostaining for orexin and Fos, cell counts in the perifornical region of modafinil-treated mice; format: in vivo; conditions: wild-type mice, 150 mg/kg i.p., 2 hours
Experimental: To determine that modafinil might act through orexin neurons, wild-type mice were injected at noon with modafinil (150 mg/kg i.p.), or vehicle, and sacrificed 2 hours later. Brains were removed, double immunostained for orexin and Fos (an indicator of neuronal activity), and cells were counted in the periforllical region. The number of orexin-immunoreactive neurons was the same in both groups (44-47 cells/section), but the modafinil-treated group had over three times as many Fos-immunoreactive neuronal nuclei (38 in the modafinil-treated mice vs. 11 in the vehicle controls; p=0.01). Within the population of orexin-immunoreactive neurons, modafinil induced a 9-fold increase in the number of Fos-immunoreactive cells (64% double labeled neurons in the modafinil group vs. 7% in the vehicle group, p=0.01) (FIG. 1). Thus, in the lateral hypothalamus, modafinil treatment is associated with activation of orexin neurons, and is thus useful as a treatment for eating disorders or for increasing appetite.

## NC(=O)C[S+]([O-])C(c1ccccc1)c1ccccc1 (stereo not drawn) [modafinil, 2-(benzhydrylsulfinyl) acetamide]
[1]; rats
  activity of the neurons in the ventrolateropreoptic area (VLPO) of the hypothalamus: reduced the activity
[1]; wakefulness-promoting doses
  activity in the TMN of the posterior hypothalamus: stimulation of activity
[2]
  tolerability: well tolerated
Orexin neurons; perifornical region, vehicle 11, p=0.01
  Fos-immunoreactive neuronal nuclei: 38
Orexin neurons; vehicle 7%, p=0.01
  double labeled (orexin/Fos) neurons within orexin-immunoreactive neurons: 64%
Orexin neurons; versus vehicle
  increase in the number of Fos-immunoreactive cells within orexin-immunoreactive neurons: 9 fold
